The values below come from patent US11203582B2, “Benzamide derivatives for inhibiting endoplasmic reticulum (ER) stress” (The Board of Regents of the University of Oklahoma, priority 2017, dated 2021).

For one assay, the system named is INS-1 cells. In words: MTT cell viability assay, INS-1 cells treated with Tm. Type of assay: cell-based, rat. Conditions: Tm 0.1 μg/mL, 72 h, FIG. 2B. The source says:
The measurement of intracellular ATP level was use as a surrogate assay for cell viability. […] To confirm the authenticity of 13d's protective effect on β-cell viability (not simply an increase in ATP-specific measurement), we used the MTT assay, which measures the activity of NAD(P)H-dependent cellular oxidoreductase enzymes, as an orthogonal method to measure cell viability. […] To determine whether the protective effect of 13d on β-cells is specific to INS-1 cells, another β-cell line, βTC6, was used. […] In addition, compound 13d on its own had no effect on β-cell viability in both cell lines (FIG. 2C-D).
INS-1 cells or βTC6 cells were seeded at 3×10^3 cells/well in a 384-well plate and treated with compounds at the indicated concentrations. After 3 d treatment, the medium was aspirated and 10 μl of MTT reagent (Cayman Chemical, MI, USA, prepared according to manufacturer's instruction) to each well was added and mixed gently for one minute on an orbital shaker. The cells were then incubated for three hours at 37° C. in a CO2 incubator. After incubation, add 100 μl of crystal dissolving solution to each well, and incubate for 4 hours in a 37° C. CO2 incubator. Viability will be measured for the absorbance to each sample at 570 nm using EnVision multilabel plate reader (PerkinElmer, MA, USA).
(In general: Tetrazolium assays rely on reduction of a dye to a coloured formazan, in cell work by metabolically active cells.)

A further assay concerns INS1 mRNA. In words: qRT-PCR of INS1 mRNA in Tm-treated INS-1 cells. Type of assay: cell-based, rat. Conditions: Tm co-treatment, 24 h. As for the experimental part:
(§1) (A-D) INS-1 cells were treated with or without Tm (0.1 m/mL) in the presence of 13d at indicated concentrations or DMSO for 24 h. The mRNA levels of INS1 (A), INS2 (B), PDX1 (C), and MafA (D), were analyzed by qRT-PCR. Relative mRNA levels were normalized against the housekeeping gene Cyclophilin A using the comparative CT method. The results are the means of 3 replicate wells and are representative of 3 independent experiments. * P<0.05 and ** P<0.01 compared with Tm treatment alone. Bars indicate SD. (E) Insulin secretion by INS-1 cells incubated with 1.7 mM and 20 mM glucose in the presence or absence of Tm (0.1 μg/mL) and 13d. Secreted insulin was measured by ELISA after 24 h treatment. * P<0.05. The amount of insulin secreted in response to 1.7 mM glucose in the absence of Tm was set to 1.0 and was normalized with total protein concentration.
(§2) INS-1 cells were seeded at 4×10^5 cells/well in 6-well plates and treated with compounds for the indicated times. […] Relative mRNA levels were normalized against the housekeeping gene Cyclophilin A and were determined by ΔΔCt calculated from the difference in ΔCt values between the target gene and Cyclophilin A with and without treatment, based on comparative CT (cycle threshold) method. […]

Another assay concerns INS2 mRNA. Kind of assay: qRT-PCR of INS2 mRNA in Tm-treated INS-1 cells. Type of assay: cell-based, rat. The conditions noted are these: Tm co-treatment, 24 h. The protocol: as §1, §2
For orientation: Real-time PCR tracks product formation cycle by cycle.

For the next assay, the system named is PDX1 mRNA. Kind of assay: qRT-PCR of PDX1 mRNA in Tm-treated INS-1 cells. Type of assay: cell-based, rat. Conditions: Tm co-treatment, 24 h. As for the experimental part:
as §1, §2

The next assay concerns MafA mRNA. Kind of assay: qRT-PCR of MafA mRNA in Tm-treated INS-1 cells. Type of assay: cell-based, rat. The conditions noted are these: Tm co-treatment, 24 h. As for the experimental part: as §1, §2
Assay [1] has as its system STZ-induced diabetic mouse model. Kind of assay: Streptozotocin (STZ)-induced diabetic mouse model. Type of assay: in vivo, C57BL/6 mice. As for the experimental part: (A) Fasting blood glucose levels were measured in STZ-injected mice treated with vehicle control (n=6) or 13d (n=7). C57BL/6J mice were injected intraperitoneally once daily for 5 days with STZ (50 mg/kg body weight) and with either vehicle (n=6 mice) or 13d (5 mg/kg body weight; n=7 mice). Injections of vehicle or 13d alone were then continued for 2 more weeks. (B) Glucose tolerance test. Blood glucose levels measured at indicated time points after intraperitoneal injection of glucose (2 g/kg body weight). (C) Pancreases were sectioned and slides were stained with anti-insulin antibody (green, β-cell marker), anti-glucagon antibody (red, α-cell marker), and DAPI (blue). Slides were imaged with an Olympus FV1000 confocal microscope. Representative images are shown in (C). (D) Quantification of total islet area per section and β-cell number per islet. Total area of all islets per section calculated for a total of six sections using insulin-positive cells to demarcate islets. Data are the means±SEM of six sections from three mice. *p<0.05 **p<0.01, and ***p<0.001 by Student's t-test.
We next evaluated the in vivo efficacy of 13d using a streptozotocin (STZ)-induced diabetic mouse model. STZ induces ER stress in β-cells in addition to the increase in reactive oxygen species (ROS) production and DNA alkylation. C57BL/6 mice injected intraperitoneally with low dose STZ (50 mg/kg) once daily for 5 consecutive days develop diabetes; blood glucose levels increased gradually within a week of STZ treatment.
All procedures involving animals were performed in accordance with the protocol approved by the University of Oklahoma Health Science Center Institutional Animal Care and Use Committee (IACUC). C57BL/6 mice were obtained from The Jackson Laboratory (Bar Harbor, Me.) and maintained on a 12 h light (6:00 AM-6:00 PM)-12 h dark (6:00 PM-6:00 AM) cycle at an ambient temperature of 21° C. Mice were given free access to water and food. All experiments were performed with age-matched male mice. Compounds were dosed during light cycle. For streptozotocin (STZ)-induced diabetic model, ten-week-old C57BL/6 mice were injected intraperitoneally (i.p.) once daily for five days with STZ (dissolved in Na-Citrate Buffer; 50 mg/kg) and either 13d (5 mg/kg body weight; 2 mg/ml in 10% DMSO in saline buffer; n=7 mice) or vehicle (n=6 mice). Injections of vehicle or 13d alone were then continued for 2 more weeks. Every third day, animals were fasted for 5 h and blood was obtained by tail snip. Blood glucose levels were measured using a glucometer (Nova Statstrip Xpress; Data Science International, St. Paul, Minn.). At the end of the treatment period, mice were sacrificed and the pancreases were removed, fixed in formalin, and paraffin-embedded. Tissue blocks were serially sectioned at intervals of 100 μm and 6 sections were stained with an anti-insulin antibody (A0564, 1:500 dilution; Dako), anti-glucagon antibody (G2654, 1:500 dilution; Sigma), and DAPI (0.5 μg/ml). Insulin-positive cells were used to demarcate islets, and the total islet area was measured with an Olympus FV1000 confocal microscopy and quantified with Image-J histogram software.

As for `O=C(NCc1ccc(C(F)(F)F)cc1)c1cccc(CN2CCCCC2)c1` [Compound 13d, N-(4-trifluoromethylphenmethyl)-3-(N-piperidinyl)methyl benzamide], the “viability of INS-1 cells under Tm treatment (MTT)” value with INS-1 cells is listed as “restored the viability of INS-1 cells”. Further, the “Tm-suppressed INS1 mRNA level” value with INS1 mRNA is “completely rescued”. The “Tm-suppressed INS2 mRNA level” value with INS2 mRNA was “completely rescued”. For the same compound, in the assay with PDX1 mRNA, the “Tm-decreased PDX1 mRNA expression level” value is on record as “completely rescued”. In addition, the “Tm-decreased MafA mRNA expression level” value in the assay with MafA mRNA is given as “completely rescued”. Moreover, the “total pancreatic islet β-cell area compared to vehicle-treated mice” value in assay [1] (STZ mice, 5 mg/kg) is “more than double”. Also, in assay [1] (STZ mice, 5 mg/kg i.p. once daily, after 3 weeks of treatment), the “fasting blood glucose level” value worked out at 314 mg/dL. Further, the “total pancreatic islet β-cell area” value in assay [1] (STZ mice, 5 mg/kg, pancreatic sections at end of treatment) came out at 67.4±5.9%. In addition, the “average number of α-cells” value in assay [1] (STZ mice, 5 mg/kg, vehicle vs 13d groups) is recorded as “no obvious effect”. The “intraperitoneal glucose tolerance test, blood glucose vs vehicle-treated STZ group” value in assay [1] (overnight fasted STZ mice, 5 mg/kg, glucose 2 g/kg i.p.) was “lower blood glucose levels at 15, and 30 min”.
